Data on 24 compounds can be found in US11524010B2, “Substituted quinazoline sulfonamides as thioredoxin interacting protein (TXNIP) inhibitors” (SOUTHERN RESEARCH INSTITUTE, priority 2017, dated 2022).

The nature of data set [1]: INS-1 cell viability (Cell Titer-Glo, ATP). The data set is classed as cell-based, Rat. As to conditions: rat, INS-1 cells, 72 hrs treatment. The protocol:
INS-1 cell viability was determined based on quantification of ATP using Cell Titer-Glo Luminescent Cell Viability Assay kit (Promega #G7572), which indicates the presence of metabolically active cells. Briefly, INS-1 cells were seeded into 96-well plates at a cell density of 4.5×10^4 and 3.5×10^4 cells per well and incubated overnight at 37° C. with 5% CO2. On the following day, cells were treated with compounds for 24 hrs and 72 hrs respectively. Cell Titer-Glo reagent was added to the cells and Luminescence was acquired on Synergy 4 Reader ([…]).

Another data set deals with TXNIP. Put plainly: Inhibition of glucose-induced endogenous TXNIP expression in INS-1 cells (qRT-PCR). It counts as cell-based, Rat. The note with it: Rattus norvegicus, INS1, 24 h, 25 mM glucose; for inhibition at 1.5 µM: 1.5 μM compound; for inhibition at 12.5 µM: 12.5 μM compound. The method, then:
The Rat INS-1 cell line was obtained from UAB and maintained in RPMI-1640 (Invitrogen #11875) supplemented with 10% fetal bovine serum (FBS), 100 U/ml penicillin and […] streptomycin, 10 mM HEPES, 1 mM Sodium Pyruvate, 50 μM 2-Mercaptoethanol, and 11.1 mM Glucose in a humidified incubator with a 5% C02 atmosphere at 37° C. 4×10^4 cells per well were seeded to 96-well plate and incubated at 37° C. overnight. A subset of the cells were then cultured in medium with 5 mM Glucose for 24 hrs and then treated in medium with 25 mM glucose with or without compounds to be tested for another 24 hrs.
For the primary high throughput screening (HTS) assay, stably transfected, monoclonal INS-1 cells were split using Trypsin (2 ml per T75 flask) and seeded at a density of 10^4/well in a 384-well plate and incubated overnight at low, 5 mM glucose. The next day, the medium was changed to high glucose (25 mM) or high glucose plus the small molecules to be tested and luciferase assays were performed 24 h later. […] For secondary screens, total RNA was extracted from 96-well cultured cells using RNeasy 96 kit (Qiagen #74181) following the manufacturer's protocol using spin technology. Then a one-step qRT-PCR amplification was performed using QuantiFast SYBR Green RT-PCR kit (Qiagen #204154) and was carried out in a 10 μl reaction which consisted of 2 μl RNA, 0.5 μM each of primers (Rat TXNIP 5′ primer: […] (SEQ ID NO:1) and Rat TXNIP 3′ primer: […] (SEQ ID NO:2); Or Rat 18S rRNA 5′ primer: […] (SEQ ID NO:3) and Rat 18S rRNA 3′ primer: […]) (SEQ ID NO:4), 5 μl 2×SYBR Green Master Mix, 0.1 μl 10× QuantiFast RT Mix. The SYBR Green assay was performed using a LightCycler 480 II (Roche Applied Science) with an initial incubation at 50° C. for 10 min for RT followed by denaturation at 95° C. for 5 min. Forty cycles of amplification were performed using a thermal cycling profile of 95° C. for 10s, 60° C. for 30 s. Subsequently, a melting curve was recorded by holding at 95° C. for 60 s, cooling to 60° C. for 60 s, and then heating at 0.11° C./s up to 95° C. The data was collected and analyzed using the LightCycler 480 Software Release 1.5.0 SP3. The relative amount of TXNIP mRNA was normalized to 18 s rRNA level as a housekeeping gene, and the data was analyzed according to the 2^−ΔΔCT method (1). The transformed data was expressed as % inhibition and compound IC50 calculated by a 4-parameter logistic fit of the data using GraphPad Prism 7.
(In general: In qPCR the cycle at which signal appears reflects the starting amount.)

With `CS(=O)(=O)NC1CCCN(c2ncnc3ccc(F)cc23)C1` (stereo not drawn) [Compound 34, N-(1-(6-fluoroquinazolin-4-yl)piperidin-3-yl)methanesulfonamide], the CC50 at 72 h in data set [1] is 33 µM. In the data set with TXNIP, this compound came in with an inhibition at 1.5 µM of 56% and an inhibition at 12.5 µM of 61%.
For `CS(=O)(=O)NCC1CCCN(c2ncnc3ccc(S(C)(=O)=O)cc23)C1` (stereo not drawn) [Compound 14, N-((1-(6-(methylsulfonyl)quinazolin-4-yl)piperidin-3-yl)methyl)methanesulfonamide], in data set [1], the cytotoxic concentration (CC50) at 72 h was more than 100 µM. In addition, in the data set with TXNIP, the inhibition at 1.5 µM came to 0% and the inhibition at 12.5 µM worked out at 24%.
As for `CS(=O)(=O)NCC1CCCN(c2ncnc3cc(C(F)(F)F)ccc23)C1` (stereo not drawn) [Compound 12, N-((1-(7-(trifluoromethyl)quinazolin-4-yl)piperidin-3-yl)methyl)methanesulfonamide], the 50% cytotoxic concentration (CC50) at 72 h in data set [1] is more than 100 µM. In the data set with TXNIP, this compound registered an inhibition at 1.5 µM of 0% and an inhibition at 12.5 µM of 13%.
On to `CS(=O)(=O)NCC1CCCN(c2nc[n+]([O-])c3ccc(C(F)(F)F)cc23)C1` (stereo not drawn) [Compound 61, 4-(3-(methylsulfonamidomethyl)piperidin-1-yl)-6-(trifluoromethyl)quinazoline 1-oxide], for which the CC50 at 72 h in data set [1] was more than 100 µM. Further, in the data set with TXNIP, the inhibition at 1.5 µM was 2% and 12.5 µM produced 25% inhibition.
With `CS(=O)(=O)NCC1CCCN(c2nc(N3CCOCC3)nc3ccccc23)C1` (stereo not drawn) [Compound 17, N-((1-(2-morpholinoquinazolin-4-yl)piperidin-3-yl)methyl)methanesulfonamide], the CC50 at 72 h in data set [1] is more than 100 µM. In addition, in the data set on TXNIP, the inhibition at 1.5 µM is 0% and the inhibition at 12.5 µM stood at 15%.
For `CS(=O)(=O)NCC1CCCN(c2ncnc3cc(C(N)=O)c(F)cc23)C1` (stereo not drawn) [Compound 21, 6-fluoro-4-(3-(methylsulfonamidomethyl)piperidin-1-yl)quinazoline-7-carboxamide], in data set [1], the half-maximal cytotoxic concentration (CC50) at 72 h is more than 100 µM. In the data set on TXNIP, the inhibition at 1.5 µM was found to be 0% and at 12.5 µM the inhibition was 12%.
For `NC(=O)c1cc2ncnc(N3CCCC(CNS(=O)(=O)C4CC4)C3)c2cc1F` (stereo not drawn) [Compound 59, 4-(3-(cyclopropanesulfonamidomethyl)piperidin-1-yl)-6-fluoroquinazoline-7-carboxamide] the same measures were more than 100 µM, 5% and 5%.
For `CS(=O)(=O)NCC1CCCN(c2ncnc3c(F)cccc23)C1` (stereo not drawn) [Compound 3, N-((1-(8-fluoroquinazolin-4-yl)piperidin-3-yl)methyl)methanesulfonamide], in data set [1], the cytotoxic concentration (CC50) at 72 h is more than 100 µM. In the data set with TXNIP, the inhibition at 1.5 µM stood at 4% and the inhibition at 12.5 µM turned out to be 59%.
`CS(=O)(=O)NC1CCCN(c2ncnc3cc(F)ccc23)C1` (stereo not drawn) [Compound 32, N-(1-(7-fluoroquinazolin-4-yl)piperidin-3-yl)methanesulfonamide]: the CC50 at 72 h in data set [1] worked out at 65 µM. Moreover, in the data set with TXNIP, the inhibition at 1.5 µM was 21% and 12.5 µM produced 62% inhibition.
As to `CS(=O)(=O)NC1CCCN(c2ncnc3cc(F)c(C#N)cc23)C1` (stereo not drawn) [Compound 37, N-(1-(6-cyano-7-fluoroquinazolin-4-yl)piperidin-3-yl)methanesulfonamide], the CC50 at 72 h in data set [1] is more than 100 µM. In the data set with TXNIP, this compound gave an inhibition at 1.5 µM of 0% and an inhibition at 12.5 µM of 24%.
Take `N#Cc1cc2ncnc(N3CCCC(CNS(=O)(=O)C(F)(F)F)C3)c2cc1F` (stereo not drawn) [Compound 53, N-((1-(7-cyano-6-fluoroquinazolin-4-yl)piperidin-3-yl)methyl)-1,1,1-trifluoromethanesulfonamide]: the CC50 at 72 h in data set [1] was more than 100 µM. Further, in the data set with TXNIP, the inhibition at 1.5 µM is 7% and the inhibition at 12.5 µM amounted to 24%.
With `CS(=O)(=O)NCC1CCCCN1c1ncnc2cc(C#N)c(F)cc12` (stereo not drawn) [Compound 43, N-((1-(7-cyano-6-fluoroquinazolin-4-yl)piperidin-2-yl)methyl)methane-sulfonamide], in data set [1], the CC50 at 72 h is more than 100 µM. In the data set with TXNIP, this compound came in with an inhibition at 1.5 µM of 0% and an inhibition at 12.5 µM of 16%.
With `CS(=O)(=O)NCC1(O)CCCN(c2ncnc3cc(F)c(C#N)cc23)C1` (stereo not drawn) [Compound 49, N-((1-(6-cyano-7-fluoroquinazolin-4-yl)-3-hydroxypiperidin-3-yl)methyl)methanesulfonamide], the CC50 at 72 h in data set [1] was more than 100 µM. Moreover, in the data set on TXNIP, the inhibition at 1.5 µM was 2% and the inhibition at 12.5 µM came to 2%.
For the compound `CS(=O)(=O)NC1CN(c2ncnc3ccc(F)cc23)C1` [Compound 52], the CC50 at 72 h in data set [1] was more than 100 µM. In the data set on TXNIP, this compound had an inhibition at 1.5 µM of 4% and an inhibition at 12.5 µM of 5%.
Turning to `CS(=O)(=O)NCC1CCCN(c2ncnc3cc(F)ccc23)C1` (stereo not drawn) [Compound 4, N-((1-(7-fluoroquinazolin-4-yl)piperidin-3-yl)methyl)methanesulfonamide], the CC50 at 72 h in data set [1] was more than 100 µM. In the data set with TXNIP, this compound yielded an inhibition at 1.5 µM of 24% and an inhibition at 12.5 µM of 16%.
For the compound `CS(=O)(=O)NCC1CCCN(c2ncnc3c(Cl)cc(F)cc23)C1` (stereo not drawn) [Compound 10, N-((1-(8-chloro-6-fluoroquinazolin-4-yl)piperidin-3-yl)methyl)methanesulfonamide], the CC50 at 72 h in data set [1] is more than 100 µM. In the data set on TXNIP, this compound had an inhibition at 1.5 µM of 23% and an inhibition at 12.5 µM of 51%.
Turning to `CS(=O)(=O)NC1CCCN(c2ncnc3cc(C#N)c(F)cc23)C1` (stereo not drawn) [Compound 36, N-(1-(7-cyano-6-fluoroquinazolin-4-yl)piperidin-3-yl)methanesulfonamide], in data set [1], the cytotoxic concentration (CC50) at 72 h turned out to be 35 µM. Further, in the data set with TXNIP, 1.5 µM produced 0% inhibition and the inhibition at 12.5 µM stood at 34%.
The like results for `CS(=O)(=O)NCC1CCCN(c2nc(-c3ccccc3)nc3ccccc23)C1` (stereo not drawn) [Compound 9, N-((1-(2-phenylquinazolin-4-yl)piperidin-3-yl)methyl)methanesulfonamide] were, in that order, 71 µM, 0% and 10%.
For `CS(=O)(=O)NC1CCCN(c2ncnc3ccc(C(F)(F)F)cc23)C1` (stereo not drawn) [Compound 38, N-(1-(6-(trifluoromethyl)quinazolin-4-yl)piperidin-3-yl)methanesulfonamide] the same measures were more than 100 µM, 34% and 60%.
Turning to `O=S(=O)(NCC1CCCN(c2ncnc3ccc(F)cc23)C1)C1CC1` (stereo not drawn) [Compound 58, N-((1-(6-fluoroquinazolin-4-yl)piperidin-3-yl)methyl)cyclopropanesulfonamide], the CC50 at 72 h in data set [1] is 57 µM. In the data set on TXNIP, this compound displayed an inhibition at 1.5 µM of 15% and an inhibition at 12.5 µM of 65%.
Turning to `CS(=O)(=O)NC1CCCN(c2ncnc3cc(F)c(F)cc23)C1` (stereo not drawn) [Compound 33, N-(1-(6,7-difluoroquinazolin-4-yl)piperidin-3-yl)methanesulfonamide], the CC50 at 72 h in data set [1] came to 68 µM. In the data set on TXNIP, this compound displayed an inhibition at 1.5 µM of 29% and an inhibition at 12.5 µM of 68%.
As to `COc1cc2ncnc(N3CCCC(CNS(C)(=O)=O)C3)c2cc1OC` (stereo not drawn) [Compound 8, N-((1-(6,7-dimethoxyquinazolin-4-yl)piperidin-3-yl)methyl)methanesulfonamide], the CC50 at 72 h in data set [1] was more than 100 µM. In the data set on TXNIP, this compound came in with an inhibition at 1.5 µM of 0% and an inhibition at 12.5 µM of 7%.
As to `CC1(CNS(C)(=O)=O)CCCN(c2ncnc3cc(F)c(C#N)cc23)C1` (stereo not drawn) [Compound 48], in data set [1], the CC50 at 72 h is more than 100 µM. For the same compound, in the data set on TXNIP, 1.5 µM produced 3% inhibition and the inhibition at 12.5 µM worked out at 26%.
With `CC(C)Nc1nc(N2CCCC(CNS(C)(=O)=O)C2)c2ccccc2n1` (stereo not drawn) [Compound 16, N-((1-(2-(isopropylamino)quinazolin-4-yl)piperidin-3-yl)methyl)methanesulfonamide], the half-maximal cytotoxic concentration (CC50) at 72 h in data set [1] was more than 100 µM. In the data set on TXNIP, this compound displayed an inhibition at 1.5 µM of 0% and an inhibition at 12.5 µM of 33%.

For orientation: CC50 means the concentration that lowers cell viability or growth by half. A word on the inhibition: it is the percentage by which the read-out fell short of the control.
